Assays:
[1] = tested on: ethylene binding site in tobacco leaves; test: Ethylene binding (14C-ethylene) in tobacco leaves, incl. Scatchard DACP-ethylene competition; set-up: species or system Nicotiana tabacum L.; settings: for Binding (% of untreated control), Tobacco leaves, Dark / Binding (% of untreated control), Tobacco leaves, Light: measured 48 hours after exposure
Procedure: (§1) Plant material was exposed to ^14 C-ethylene in the presence or absence of unlabeled ethylene. Usually exposure was for two hours. After this time, material was aired for two minutes and placed in 250 or 500 ml jars containing mercury perchlorate in liquid scintillation vials which also contained fiberglass filter to increase the surface area for 24 hours. The vials were then removed, scintillation fluid added and the samples counted in a liquid scintillation counter. All measurements were corrected for unbound ethylene. When the number of binding sites inactivated by DACP in the light were desired, samples were aired 48 hours before measuring ethylene binding to allow the DACP not undergoing a light reaction to diffuse away.
(§2) Experiments in the Examples below were carried out under normal laboratory fluorescent lights. The light intensity was 560 lux at the laboratory bench level. Normally treatment was inside 2.5 liter desiccators and the amount of light reaching the plant material was measured to average 448 lux or 80% of the incident light. When more light was needed, desiccators were moved to a position where the intensity was 2700 lux outside the desiccators. The amount of light reaching the plant material was measured to be 2160 lux.
Tobacco leaves (Nicotiana tabacum L.) were grown in a greenhouse. Leaves were harvested when approximately 10 cm in length, the midrib removed and allowed to stand overnight for wound ethylene to subside. After incubating tobacco leaves with DACP for three hours under fluorescent lights at 448 lux of fluorescent light, some of the ethylene binding site present, as assayed by ^14 C-labeled ethylene disappears. As the concentration of DACP increases, the amount of binding site remaining decreases. The curve (FIG. 1) appears to be biphasic with a decrease of 80% of binding between 0 and 40 μl/l at DACP. Addition of an additional 80 μl/l of DACP reduced binding further 10%. […] In all previous cases, compounds diffused from the binding site with a half life of three to six hours.
(§3) Scatchard plots are used to determine the binding constants of compounds. An underlying assumption using this method is that the reaction is reversible. Using DACP in the light leads to an irreversible complex and the Scatchard plot is not valid. It can be made and compared with the competition in the dark to evaluate the relative effectiveness of the compound in the light versus dark. FIGS. 6 and 7 represent plots for tobacco leaves and mung bean sprouts in the light and in the dark. It can be seen from these two figures that there are apparently two classes of sites present in both tobacco leaves and mung bean sprouts. The values are much lower in the light which would be expected if the site is being permanently removed. A greater portion of the binding sites appears to be occupied in the competition experiments (FIGS. 6, 7) than in experiments in which added ethylene is not present (FIGS. 3, 4, 5).

[2] = tested on: ethylene binding site in mung bean sprouts; test: Ethylene binding (14C-ethylene) in mung bean sprouts, incl. Scatchard DACP-ethylene competition; set-up: species or system Vigna radiata L.; settings: for Binding (% of untreated control), Mung bean sprouts, Dark / Binding (% of untreated control), Mung bean sprouts, Light: measured 24 hours after exposure
Procedure: as §1
(§4) Mung beans (Vigna radiata L.) were germinated in the dark for four days. At this point 10-12 sprouts were placed in 3 liter containers, and treated with DACP and ethylene as indicated in the individual Examples below. Ethylene was changed each day and seedlings were retreated with DACP at seven days. The height was measured at ten days. Light was 560 lux throughout the experiment after the four-day germination in the dark.
as §2, §3

mung bean seedlings = test: Growth inhibition of mung bean seedlings by ethylene; format: in vivo, Vigna radiata L.
Procedure: as §4, with “Light was 560 lux throughout the experiment after the four-day germination in the dark.” left out

Tomato fruit = test: Tomato ripening (red/green reflectance ratio); format: in vivo, Lycopersicon esculentum, Mill; settings: 25° C.
Procedure: Plant Material. Tomatoes (Lycopersicon esculentum, Mill) were obtained from a wholesale distributor.
Chemicals. DACP was prepared as previously described and kept as a 4-8% solution in hexane. Treatment was in a 3 l container. DACP was pipetted as a hexane solution onto paper towel to facilitate evaporation. After sealing, the containers were kept in darkness or exposed to 448 lux of fluorescent light for 24 hours. After 24 hours, containers were aired out for 24 hours. Those containers kept in darkness were aired in darkness. Subsequently the ethylene treatment was started and all samples were kept in 448 lux of fluorescent light. The gas phase was changed each day.
Ripening. Ripening was measured with an Agtron reflectance spectrophotometer (Magnson Engineers, Inc., Instruments Division, San Jose, Calif.) which measures the ratio of red/green light reflected from the tomato.

Cut purple petunias = test: Cut flower longevity, petunias; format: in vivo, Petunia hydrida; settings: volatile DACP
Procedure: Cut purple petunias (Petunia hydrida) are treated with volatile DACP in the same manner as described above.

Carnation = test: Cut flower longevity, carnation; format: in vivo, Dianthus caryophyllus; settings: volatile DACP
Potted poinsettia = test: Protection of potted poinsettia from ethylene; format: in vivo, Euphorbia pulcherima; settings: volatile DACP
Procedure: Potted poinsettia (Euphorbia pulcherima) is treated with volatile DACP in the same manner as described above, and then exposed to ethylene to determine if the DACP would protect the poinsettia from the ethylene.

beans = test: Ethylene-induced leaf abscission in beans; format: in vivo, Phaseolus vulgaris; settings: DACP vapor
ethylene binding = settings: Plant Growth Reg. 9, 157-164 (1990); cited from earlier work
[3] = DARK, DACP 120 ul/l + 10 μl/l E
[4] = DARK, DACP 120 ul/l as a gas, no ethylene
[5] = LIGHT, DACP 120 ul/l + 10 μl/l E
[6] = LIGHT, DACP 120 ul/l + 100 μl/l E
[7] = LIGHT, DACP 120 ul/l as a gas, no ethylene

## [N-]=[N+]=C1C=CC=C1 [Diazocyclopentadiene]
[1]
  Binding (% of untreated control), Tobacco leaves, Dark: 100 % of untreated control
  Binding (% of untreated control), Tobacco leaves, Light: 27 % of untreated control
[1]; additional 80 μl/l of DACP, three hours at 448 lux (FIG. 1), 180 min
  further reduction of binding: 10%
[1]; between 0 and 40 μl/l DACP, three hours at 448 lux fluorescent light (FIG. 1), 180 min
  decrease of binding: 80%
[1]; in the dark, 245 μl/l (gas) DACP (FIG. 2A)
  half life of reappearance of the binding site after DACP is removed: about 15 hours
[1]; incubated in darkness, 245 μl/l (gas) DACP (FIG. 2A)
  binding site after incubation with DACP: most of the binding site disappears
[1]; leaves preincubated in the light before removing the DACP (FIG. 2A)
  reappearance of the binding site after DACP is removed: does not reappear or if it does it does so only very slowly over many days
[1]; same leaves re-assayed without retreating with DACP
  amount of binding site after 24 additional hours: appears to remain constant
[1]; two hours DACP in the dark, aired one hour, then light
  amount of binding site inactivated, prebound DACP versus DACP present during the light treatment: No difference
[2]; 448 lux, presaturated site (FIG. 3)
  time in which most of the light reaction has occurred: ≤ 30 min
[2]
  Binding (% of untreated control), Mung bean sprouts, Dark: 100 % of untreated control
  Binding (% of untreated control), Mung bean sprouts, Light: 24 % of untreated control
[2]; after release as a liquid (FIG. 3)
  time in which most of the decrease in binding occurs (diffusion to the binding site): ≤ 15 min
[2]; in darkness, 245 μl/l (gas) DACP (FIG. 2B)
  time for 1/2 of the binding site to be regenerated: about two
Mung bean seedlings; [3]
  % of Control: 16 % of Control
  Height (cm): 1.5 cm
Mung bean seedlings; [4]
  % of Control: 94 % of Control
  Height (cm): 9.0 cm
Mung bean seedlings; [5]
  % of Control: 80 % of Control
  Height (cm): 7.6 cm
Mung bean seedlings; [6]
  % of Control: 53 % of Control
  Height (cm): 5.0 cm
Mung bean seedlings; LIGHT, DACP 120 ul/l + 1000 μl/l E
  Height (cm): 2.3 cm
Mung bean seedlings; LIGHT, DACP 120 ul/l + 1000 μl/l E, 14400 min
  % of Control: 3.6 % of Control
Mung bean seedlings; [7]
  % of Control: 93 % of Control
  Height (cm): 8.9 cm
Tomato fruit; DACP in the light
  time by which all of the tomatoes were nearly ripe: ≤ 25 days
Tomato fruit; single exposure in the light, whether or not 1000 μl/l of ethylene was present (FIG. 8)
  ratio of red to green: remained constant for ten days
Tomato fruit; DACP applied in the dark
  effect on ripening: only a small effect
  time to ripe as indicated by the red/green ratio: ripe in ten days
Cut purple petunias
  longevity of the flower: found to increase
Carnation
  longevity of the flower: likewise found to increase
Potted poinsettia
  signs of injury from DACP: No signs of injury
Potted poinsettia; then exposed to ethylene
  death of the flowers (cyanthum) in response to ethylene: died in response to the ethylene in the controls but not on the DACP treated plants
beans
  ethylene-induced leaf abscission: found to prevent ethylene-induced leaf abscission

## C=C [Ethylene]
[1]
  Binding (% of untreated control), Tobacco leaves, Dark: 100 % of untreated control
  Binding (% of untreated control), Tobacco leaves, Light: 100 % of untreated control
[2]
  Binding (% of untreated control), Mung bean sprouts, Dark: 100 % of untreated control
  Binding (% of untreated control), Mung bean sprouts, Light: 100 % of untreated control
Mung bean seedlings; DARK, 10 μl/l E
  % of Control: 16 % of Control
  Height (cm): 1.5 cm
Mung bean seedlings; LIGHT, 10 μl/l E
  % of Control: 16 % of Control
  Height (cm): 1.5 cm
Mung bean seedlings; LIGHT, 1000 μl/l E
  % of Control: 16 % of Control
  Height (cm): 1.5 cm
Mung bean seedlings; after exposure to DACP
  1/2 maximum of ethylene for growth inhibition (Lineweaver-Burk plot): 50 μl/l

## C1=CCC=C1 [cyclopentadiene]
Ethylene binding
  blocking of ethylene binding: effective blocking agent for ethylene binding

Reference: patent publication US5100462A, “Method of counteracting ethylene response by treating plants with diazocyclopentadiene and derivatives thereof” (North Carolina State University, priority 1991, dated 1992)
